# Experimental data taken from patent publication US20110274679A1, “Compositions and Methods of SIRT Activation” (VDF FutureCeuticals, Inc., priority 2008, published 2011).
# Test system: SIRT
# Assay: in vitro SIRT activity in treated cells, lysed after treatment (BioMol SIRT Activity Assay kit)
# Type: cell-based
# Conditions: depending on the cell line; positive control
# Description: Among other suitable combinations, one exemplary SIRT activating combination of B-vitamins was formulated that included a combination of vitamin B2, B1, B3, B6, B12, and B5. Using that combination, HeLa cells were separately treated in vitro for 4 hrs, along with a reference compound (here: resveratrol) as positive control, as well as individually with the respective above vitamins at a total concentrations of 0.1% (wt/vol) of culture medium. To measure SIRT activation, the cells were lysed after treatment and SIRT activity was determined using a commercially available SIRT Activity Assay kit (BioMol, Inc.; Catalog #KI-104).
# Moreover, in vitro activation with the known SIRT activator resveratrol was, depending on the cell line, between about 15-120% of untreated control, making the SIRT activation with the vitamin compounds even more remarkable.
# In an experiment similar to that above, FIG. 2 depicts further combinations for selected vitamin B compounds in which the columns show the results for A (Riboflavin, vitamin B2), B (Thiamine, vitamin B1), C (Niacinamide, vitamin B3), D (Pyridoxine, vitamin B6), E (Cyanocobolamin, vitamin B12), F (Ca-Panthotenate, vitamin B5), G=Blend of A-F (VSIRT), H (Pyrodoxine, vitamin B6 plus Cobalamin, vitamin B12), 0.05% each, and I (H plus Riboflavin, vitamin B2) (0.033% each). […]
compound,measurement,value
Oc1ccc(C=Cc2cc(O)cc(O)c2)cc1 [resveratrol],in vitro activation of SIRT,15-120 % of untreated control
